Measured values: patent US10519177B2, “Heterocyclic compounds and uses thereof” (Plexxikon Inc., priority 2013, dated 2019)

Legend:
[1] = test system: MV-4-11 cells; assay: Oncology cell growth assay MV-4-11 (CellTiter Glo); format: cell-based; conditions: Homo sapiens, MV4-11, 72 h; MV-4-11, 3d growth; read-out: Cell activity (IC50 μM) MV-4-11 3d-Growth
Summary of the method: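 MV-4-11 AML cells (MLL-AF4), 3000 per well, exposed to 8-point 1:3 compound titration from 10 μM top concentration (0.2% DMSO) for 72 h. Viability by CellTiter Glo luminescence, normalized to DMSO controls; pIC50 from four-parameter curve fit.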

[2] = test system: bromodomain; assay: at least one of the bromodomain cell assays of Example 57; format: cell-based; conditions: at least one of the bromodomain cell assays described in Example 57; read-out: IC50 in at least one of the bromodomain cell assays
[3] = molecular target: BRD4-BD12 (1-477) (Homo sapiens (Human), UniProt O60885); assay: Alphascreen binding assay BRD4-BD12; conditions: BRD4(1 2) H4; read-out: Biochemical activity (IC50 μM) BRD4(1 2) H4
Summary of the method: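 First, compound was preincubated 1 h at room temperature with the His-tagged BRD4 protein (BD1 44-164 or tandem BD12 1-477) and acetylated H4 peptide. Next, donor and acceptor beads were added at 7.5 μg/ml final. After 30 min, AlphaScreen emission was recorded.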

Row | Structure (SMILES) | IC50 [1] [µM] | IC50 [2] [nM] | IC50 [3] [µM]
1 | Cn1cc(-c2cn(CC3CCC(F)(F)CC3)c3cc(-c4ccc(=O)n(C)c4)cnc23)cn1 [P-0438, 5-[1-[(4,4-difluorocyclohexyl)methyl]-3-(1-methylpyrazol-4-yl)pyrrolo[3,2-b]pyridin-6-yl]-1-methyl-pyridin-2-one] | < 1 | < 10000 | < 1
2 | Cc1n[nH]c(C)c1-c1cnc2c(-c3cnn(CC(F)(F)F)c3)cn(CC3CCC(F)(F)CC3)c2c1 [P-0440] | < 1 | < 10000 | < 1
3 | CCOC(=O)c1ccc(-n2cc(CC3CCC(F)(F)CC3)c3cc(-c4c(C)noc4C)cnc32)c(F)c1 [P-0441, ethyl 4-[3-[(4,4-difluorocyclohexyl)methyl]-5-(3,5-dimethylisoxazol-4-yl)pyrrolo[2,3-b]pyridin-1-yl]-3-fluoro-benzoate] | 1 to 10 | < 10000 | < 1
4 | Cc1noc(C)c1-c1cnc2c(c1)c(CC1CCC(F)(F)CC1)cn2-c1ccc(C(=O)O)cc1F [P-0442, 4-[3-[(4,4-difluorocyclohexyl)methyl]-5-(3,5-dimethylisoxazol-4-yl)pyrrolo[2,3-b]pyridin-1-yl]-3-fluoro-benzoic acid] | < 1 | < 10000 | < 1
5 | Cc1noc(C)c1-c1cnc2c(c1)c(CC1CCC(F)(F)CC1)cn2-c1ncc(C(=O)O)cn1 [P-0443, 2-[3-[(4,4-difluorocyclohexyl)methyl]-5-(3,5-dimethylisoxazol-4-yl)pyrrolo[2,3-b]pyridin-1-yl]pyrimidine-5-carboxylic acid] | 1 to 10 | < 10000 | < 1
6 | Cc1noc(C)c1-c1cnc2c(I)cn(CC3(F)CCC(F)(F)CC3)c2c1 [P-0448, 4-[3-iodo-1-[(1,4,4-trifluorocyclohexyl)methyl]pyrrolo[3,2-b]pyridin-6-yl]-3,5-dimethyl-isoxazole] | < 1 | < 10000 | < 1
7 | Nc1ncc(-c2cnc3c(-c4cnn(CC(F)(F)F)c4)cn(CC4CCC(F)(F)CC4)c3c2)cn1 [P-0451, 5-[1-[(4,4-difluorocyclohexyl)methyl]-3-[1-(2,2,2-trifluoroethyl)pyrazol-4-yl]pyrrolo[3,2-b]pyridin-6-yl]pyrimidin-2-amine] | 10 to 200 | < 10000 | 1 to 10
8 | COc1ncc(-c2cnc3c(-c4cnn(CC(F)(F)F)c4)cn(CC4CCC(F)(F)CC4)c3c2)s1 [P-0452, 5-[1-[(4,4-difluorocyclohexyl)methyl]-3-[1-(2,2,2-trifluoroethyl)pyrazol-4-yl]pyrrolo[3,2-b]pyridin-6-yl]-2-methoxy-thiazole] | 1 to 10 | < 10000 | < 1
9 | COC(=O)c1ccc(-c2cn(CC3(F)CCCCC3)c3cc(-c4c(C)noc4C)cnc23)cn1 [P-0453, methyl 5-[6-(3,5-dimethylisoxazol-4-yl)-1-[(1-fluorocyclohexyl)methyl]pyrrolo[3,2-b]pyridin-3-yl]pyridine-2-carboxylate] | < 1 | < 10000 | < 1
10 | COC(=O)c1ccc(-c2cn(CC3(F)CCC(F)(F)CC3)c3cc(-c4c(C)noc4C)cnc23)cn1 [P-0454, methyl 5-[6-(3,5-dimethylisoxazol-4-yl)-1-[(1,4,4-trifluorocyclohexyl)methyl]pyrrolo[3,2-b]pyridin-3-yl]pyridine-2-carboxylate] | < 1 | < 10000 | < 1
11 | Cc1noc(C)c1-c1cnc2c(-c3ccc(C(=O)O)nc3)cn(CC3(F)CCCCC3)c2c1 [P-0455, 5-[6-(3,5-dimethylisoxazol-4-yl)-1-[(1-fluorocyclohexyl)methyl]pyrrolo[3,2-b]pyridin-3-yl]pyridine-2-carboxlic acid] | < 1 | < 10000 | < 1
12 | Cc1noc(C)c1-c1cnc2c(-c3ccc(C(=O)O)nc3)cn(CC3(F)CCC(F)(F)CC3)c2c1 [P-0456, 5-[6-(3,5-dimethylisoxazol-4-yl)-1-[(1,4,4-trifluorocyclohexyl)methyl]pyrrolo[3,2-b]pyridin-3-yl]pyridine-2-carboxylic acid] | < 1 | < 10000 | < 1
13 | Cc1noc(C)c1-c1cnc2c(-c3ccc(C#N)cc3)cn(CC3(F)CCCCC3)c2c1 [P-0457, 4-[6-(3,5-dimethylisoxazol-4-yl)-1-[(1-fluorocyclohexyl)methyl]pyrrolo[3,2-b]pyridin-3-yl]benzonitrile] | < 1 | < 10000 | < 1
14 | Cc1noc(C)c1-c1cnc2c(-c3ccc(C#N)cc3)cn(CC3(F)CCC(F)(F)CC3)c2c1 [P-0458, 4-[6-(3,5-dimethylisoxazol-4-yl)-1-[(1,4,4-trifluorocyclohexyl)methyl]pyrrolo[3,2-b]pyridin-3-yl]benzonitrile] | < 1 | < 10000 | < 1
15 | [2H]C([2H])(C1CCC(F)(F)CC1)n1cc(C(=O)O)c2ncc(-c3c(C)noc3C)cc21 [P-0459, 1-[dideuterio-(4,4-difluorocyclohexyl)methyl]-6-(3,5-dimethylisoxazol-4-yl)pyrrolo[3,2-b]pyridine-3-carboxylic acid] | 1 to 10 | < 10000 | < 1
16 | Cc1noc(C)c1-c1cnc2c(-c3ccc(-c4nnn[nH]4)cc3)cn(CC3(F)CCCCC3)c2c1 [P-0460, 4-[1-[(1-fluorocyclohexyl)methyl]-3-[4-(1H-tetrazol-5-yl)phenyl]pyrrolo[3,2-b]pyridin-6-yl]-3,5-dimethyl-isoxazole] | < 1 | < 10000 | < 1
17 | Cc1noc(C)c1-c1cnc2c(-c3ccc(-c4nnn[nH]4)cc3)cn(CC3(F)CCC(F)(F)CC3)c2c1 [P-0461, 3,5-dimethyl-4-[3-[4-(1H-tetrazol-5-yl)phenyl]-1-[(1,4,4-trifluorocyclohexyl)methyl]pyrrolo[3,2-b]pyridin-6-yl]isoxazole] | < 1 | < 10000 | < 1
18 | Cc1noc(C)c1-c1cnc2c(C#CC(=O)O)cn(CC3CCC(F)(F)CC3)c2c1 [P-0462, 3-[1-[(4,4-difluorocyclohexyl)methyl]-6-(3,5-dimethylisoxazol-4-yl)pyrrolo[3,2-b]pyridin-3-yl]prop-2-ynoic acid] | 1 to 10 | < 10000 | < 1
19 | Cc1ccc(-c2cn(CC3(F)CCCCC3)c3cc(-c4c(C)noc4C)cnc23)cn1 [P-0463, 4-[1-[(1-fluorocyclohexyl)methyl]-3-(6-methyl-3-pyridyl)pyrrolo[3,2-b]pyridin-6-yl]-3,5-dimethyl-isoxazole] | < 1 | < 10000 | < 1
20 | COc1ncc(-c2cn(CC3(F)CCCCC3)c3cc(-c4c(C)noc4C)cnc23)cn1 [P-0464, 4-[1-[(1-fluorocyclohexyl)methyl]-3-(2-methoxypyrimidin-5-yl)pyrrolo[3,2-b]pyridin-6-yl]-3,5-dimethyl-isoxazole] | < 1 | < 10000 | < 1
21 | CNC(=O)c1ccc(-c2cn(CC3(F)CCCCC3)c3cc(-c4c(C)noc4C)cnc23)cc1 [P-0465, 4-[6-(3,5-dimethylisoxazol-4-yl)-1-[(1-fluorocyclohexyl)methyl]pyrrolo[3,2-b]pyridin-3-yl]-N-methyl-benzamide] | < 1 | < 10000 | < 1
22 | Cc1noc(C)c1-c1cnc2c(-c3ccc(C(N)=O)cc3)cn(CC3(F)CCCCC3)c2c1 [P-0466, 4-[6-(3,5-dimethylisoxazol-4-yl)-1-[(1-fluorocyclohexyl)methyl]pyrrolo[3,2-b]pyridin-3-yl]benzamide] | < 1 | < 10000 | < 1
23 | Cc1noc(C)c1-c1cnc2c(-c3ccc(F)c(C(=O)O)c3)cn(CC3(F)CCCCC3)c2c1 [P-0467, 5-[6-(3,5-dimethylisoxazol-4-yl)-1-[(1-fluorocyclohexyl)methyl]pyrrolo[3,2-b]pyridin-3-yl]-2-fluoro-benzoic acid] | < 1 | < 10000 | < 1
24 | Cc1noc(C)c1-c1cnc2c(-c3ccc(C(=O)O)cc3F)cn(CC3(F)CCCCC3)c2c1 [P-0468, 4-[6-(3,5-dimethylisoxazol-4-yl)-1-[(1-fluorocyclohexyl)methyl]pyrrolo[3,2-b]pyridin-3-yl]-3-fluoro-benzoic acid] | < 1 | < 10000 | < 1
25 | Cc1noc(C)c1-c1cnc2c(-c3ccc(C(=O)O)c(F)c3)cn(CC3(F)CCCCC3)c2c1 [P-0469, 4-[6-(3,5-dimethylisoxazol-4-yl)-1-[(1-fluorocyclohexyl)methyl]pyrrolo[3,2-b]pyridin-3-yl]-2-fluoro-benzoic acid] | < 1 | < 10000 | < 1
26 | COc1ccc(-c2cn(CC3(F)CCCCC3)c3cc(-c4c(C)noc4C)cnc23)cn1 [P-0470, 4-[1-[(1-fluorocyclohexyl)methyl]-3-(6-methoxy-3-pyridyl)pyrrolo[3,2-b]pyridin-6-yl]-3,5-dimethyl-isoxazole] | < 1 | < 10000 | < 1
27 | Cc1noc(C)c1-c1cnc2c(-c3ccc(=O)n(C)c3)cn(CC3(F)CCCCC3)c2c1 [P-0471, 5-[6-(3,5-dimethylisoxazol-4-yl)-1-[(1-fluorocyclohexyl)methyl]pyrrolo[3,2-b]pyridin-3-yl]-1-methyl-pyridin-2-one] | < 1 | < 10000 | < 1
